System: cat's oral microbiome
Assay: Microbial diversity metrics in sequential oral samples of a cat after a dental procedure with cefovecin sodium
Assay type: in vivo
Conditions: tooth extraction and cefovecin sodium; for PD Evenness: Before 0.53; for HA Evenness: Before 0.62; for PD/HA Evenness: Before 0.85; for PD/HA Diversity: Before 1.21; for PD/HA Richness: Before 1.32; for HA Diversity: Before 1.87; for PD Diversity: Before 2.26; for Pathobiont Richness: Before 3; for HA Richness: Before 31; for PD Richness: Before 41
Description: Alpha diversity metrics (Amplified Sequence Variant Richness, Shannon Diversity, and Pielou's Evenness) were calculated for a subset of periodontal disease-associated bacteria (PD) and a subset of health-associated bacteria (HA). The range for PD richness in healthy cats and dogs is 0-39. The range for health richness in healthy cats and dogs is 20-50. For comparison, oral health of each individual was also assessed by examination by a veterinary technician and or a veterinarian and observations of oral health and breath were record as shown in the table below.
Microbial diversity metrics were assessed for three sequential samples collected from a cat with advanced periodontal disease with tooth resorption prior to a dental cleaning to remove calculus, tooth extraction, and treatment with cefovecin sodium, a broad-spectrum antibiotic. Microbial diversity measures for samples collected from a cat with advanced periodontal disease with tooth resorption prior to a dental procedure that included cleaning to remove calculus, tooth extraction, and antibiotic treatment. Samples were collected by swabbing the area between the gingival sulcus and the gingival margin and were sequenced using the Illumina MiniSeq. […] At five weeks after, PD richness had increased but PD diversity had decreased, likely driven by a reduction in evenness. At five weeks after, for HA microbes, there were increases in richness, diversity, and evenness, and the PD/HA ratios for richness and diversity had decreased. Thus, this cat's oral microbiome began to show signs of recovery in a sample collected five weeks later.

[1] = Five weeks after dental cleaning
[2] = Two weeks after dental cleaning

SMILES: CO/N=C(/C(=O)N[C@@H]1C(=O)N2C(C(=O)[O-])=C([C@@H]3CCCO3)CS[C@H]12)c1csc(N)n1.[Na+] [cefovecin sodium]
- PD Evenness [1]: 0.62
- HA Evenness [1]: 0.58
- PD/HA Evenness [1]: 1.07
- PD/HA Diversity [1]: 1.15
- PD/HA Richness [1]: 0.92
- HA Diversity [1]: 1.62
- PD Diversity [1]: 1.86
- Pathobiont Richness [1]: 2
- HA Richness [1]: 25
- PD Richness [1]: 23
- PD Evenness [2]: 0.74
- HA Evenness [2]: 0.43
- PD/HA Evenness [2]: 1.72
- PD/HA Diversity [2]: 1.95
- PD/HA Richness [2]: 1.46
- HA Diversity [2]: 1.11
- PD Diversity [2]: 2.17
- Pathobiont Richness [2]: 2
- HA Richness [2]: 13
- PD Richness [2]: 19

— US20230016526A1, “SYSTEM AND METHODS FOR MANIPULATION OF THE ORAL MICROBIOME IN MAMMALS” (ANIMAL MICROBIOME ANALYTICS, INC. (D/B/A ANIMALBIOME), priority 2019, published 2023)
